Experimental findings from ChEMBL document CHEMBL1201862, “PubChem BioAssay data set” (2004) are described below.

Some test systems named below: SR; HOP-62; Malme-3M; UACC-257; DMS-273; NCI-H226; OVCAR-5; CCRF-CEM; DLD-1; SF-268; COLO 205; SNB-19; OVCAR-3; HL-60; OVCAR-4; EKVX; MOLT-4; SF-539; HCT-15; DMS-114.
Experiment in all cases: DTP human tumour cell line panel, 48 h

The structures appear in SMILES notation.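 Briefly, cells in 96-well plates were exposed to five compound concentrations for 48 h, and endpoints were estimated by linear interpolation. GI50 = concentration required for 50% inhibition of growth.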 Activity calls are given as the source filed them. No stated cut-off is given here; in the data, active = GI50 up to about 1.1 µM and inactive = higher. Where a SMILES comes first, the peptide text is derived from it. The star is where a group is joined. Fmoc = O=C(OCC1c2ccccc2-c2ccccc21)*; OtBu = CC(C)(C)O*

Consider `CC(=O)NC1=C(C)C(=O)c2c(nc3n2CCC3OC(=O)CCl)C1=O` (stereo not drawn), for which the GI50 was 2.68 µM (inactive) in the test with SR; 17.1 µM (inactive) with HOP-62; 3.66 µM (inactive) with Malme-3M; 12.7 µM (inactive) in the test on UACC-257; 17.2 µM (inactive) with DMS-273; 2.52 µM (inactive) with NCI-H226. Also, the GI50 was 12.9 µM (inactive) in the test on OVCAR-5; 1.45 µM (inactive) in the test with CCRF-CEM; 12.9 µM (inactive) in the test with DLD-1; 10.3 µM (inactive) in the test with SF-268; 17.5 µM (inactive) in the test on COLO 205; 16.6 µM (inactive) in the test with SNB-19. Further, the GI50 with OVCAR-3 was 1.41 µM (inactive); in the test on HL-60, 2.51 µM (inactive); in the test on OVCAR-4, 1.52 µM (inactive); with EKVX, 8.57 µM (inactive); with MOLT-4, 1.69 µM (inactive); in the test with SF-539, 2.73 µM (inactive).
Regarding `COc1ccc(N2N=NN(C(C)C)/C2=C(/Cl)c2nnnn2-c2ccc(OC)cc2)cc1`, the GI50 with SR was 2.98 µM (inactive); with HOP-62, 21 µM (inactive); with Malme-3M, 11.4 µM (inactive); in the test on UACC-257, 15.3 µM (inactive); with NCI-H226, 20.2 µM (inactive); in the test on OVCAR-5, 13.6 µM (inactive). The GI50 was 1.83 µM (inactive) in the test with CCRF-CEM; 16.2 µM (inactive) with SF-268; 3.72 µM (inactive) in the test with COLO 205; 16 µM (inactive) with SNB-19; 9.62 µM (inactive) in the test with OVCAR-3; 15.8 µM in the test with HCT-15. Also, the GI50 with HL-60 was 2.45 µM (inactive); in the test on OVCAR-4, 5.01 µM (inactive); in the test with EKVX, 18.2 µM (inactive); in the test with MOLT-4, 4.61 µM (inactive); in the test on SF-539, 18.8 µM (inactive).
With `CC(=O)NNc1nc(C)c(C(/C=C/c2ccc(Cl)cc2)=N\N=C(N)N)s1`, the GI50 in the test on SR, in the test on HOP-62, in the test with Malme-3M, in the test on UACC-257, in the test with DMS-273 and in the test with NCI-H226 was > 100 µM (inactive) each time. The GI50 in the test on OVCAR-5, with CCRF-CEM, with DLD-1, in the test on SF-268, with COLO 205 and in the test on SNB-19 was > 100 µM (inactive) throughout. The GI50 in the test with OVCAR-3 is > 100 µM (inactive); in the test with HCT-15, above 100 µM; with HL-60 it was > 100 µM (inactive); in the test with OVCAR-4, > 100 µM (inactive); in the test with MOLT-4, > 100 µM (inactive); with SF-539, > 100 µM (inactive).
As for `Cc1ccc(S(=O)(=O)N/N=C/c2oc(-c3ccccc3Cl)c(-c3ccccc3Cl)c2[N+](=O)[O-])cc1`, the GI50 with SR is 7.64 µM (inactive); in the test on HOP-62, 17.6 µM (inactive); in the test on Malme-3M, 24 µM (inactive); in the test on DMS-114 it was 17.3 µM (inactive); in the test with UACC-257, 37.2 µM (inactive); in the test on OVCAR-5, 17.5 µM (inactive). The GI50 was 7.24 µM (inactive) in the test on CCRF-CEM; 17.1 µM (inactive) in the test with DLD-1; 36.1 µM (inactive) in the test on SF-268; 28.1 µM (inactive) with COLO 205; 15.6 µM (inactive) in the test on SNB-19; > 100 µM (inactive) in the test on OVCAR-3. Besides, the GI50 in the test on HL-60 was 8.02 µM (inactive); in the test on OVCAR-4 it was 30 µM (inactive); in the test on EKVX, 31.5 µM (inactive); in the test with MOLT-4 it was 11.5 µM (inactive); with SF-539, 22.4 µM (inactive).
For `N#CC1C(=O)SC2c3ccccc3C(=O)c3ccccc3C12` (stereo not drawn), the GI50 with SR, in the test with HOP-62, in the test with Malme-3M, in the test with UACC-257, with NCI-H226 and with OVCAR-5 was > 10 µM (inactive) in each case. Also, the GI50 is > 10 µM (inactive) in the test on CCRF-CEM; > 10 µM (inactive) in the test on SF-268; > 10 µM (inactive) in the test with COLO 205; > 10 µM (inactive) in the test with SNB-19; > 10 µM (inactive) in the test with OVCAR-3; above 10 µM in the test with HCT-15. Also, the GI50 in the test with HL-60, in the test with OVCAR-4, with EKVX, with MOLT-4 and in the test with SF-539 was > 10 µM (inactive) in each case.
As for `C[C@@H](NS(=O)(=O)c1ccc(NC(=O)c2ccccc2)cc1)C(=O)O`, the GI50 in the test on Malme-3M, with UACC-257, in the test with DMS-273, with OVCAR-5, with CCRF-CEM and in the test on DLD-1 was > 100 µM (inactive) throughout. The GI50 in the test with SF-268 is > 100 µM (inactive); in the test with COLO 205 it was > 100 µM (inactive); in the test with SNB-19 it was > 100 µM (inactive); in the test with OVCAR-3 it was > 100 µM (inactive); in the test with HCT-15, above 100 µM; in the test on HL-60, > 100 µM (inactive). Further, the GI50 in the test with OVCAR-4, in the test with EKVX, in the test with MOLT-4 and in the test on SF-539 was > 100 µM (inactive) throughout.
Consider `COc1cc(/C=C(\C)[N+](=O)[O-])cc(OC)c1`, for which the GI50 in the test on SR is 3.01 µM (inactive); with HOP-62, 19.2 µM (inactive); in the test on Malme-3M it was 14.8 µM (inactive); in the test with UACC-257, 15.5 µM (inactive); in the test on NCI-H226, > 52.5 µM (inactive); in the test with OVCAR-5, 20.1 µM (inactive). Moreover, the GI50 was 2.4 µM (inactive) in the test with CCRF-CEM; 19.3 µM (inactive) in the test with SF-268; 8.05 µM (inactive) in the test on COLO 205; > 40.9 µM (inactive) with SNB-19; 17.8 µM (inactive) in the test with OVCAR-3; 12.6 µM with HCT-15. Further, the GI50 was 2.04 µM (inactive) with HL-60; 18.1 µM (inactive) in the test on OVCAR-4; 19.2 µM (inactive) in the test with EKVX; 2.57 µM (inactive) in the test on MOLT-4; 9.18 µM (inactive) with SF-539.
As for `O=[N+]([O-])/C(C(Cl)=C(Cl)Cl)=C(/Nc1ccccc1)SCc1ccccc1`, the GI50 was 22.3 µM (inactive) in the test with SR; 19.1 µM (inactive) in the test with HOP-62; 16.4 µM (inactive) in the test with Malme-3M; 24 µM (inactive) in the test on UACC-257; 21.2 µM (inactive) in the test on NCI-H226; 20 µM (inactive) in the test on OVCAR-5. Also, the GI50 in the test with CCRF-CEM was 15 µM (inactive); in the test with SF-268, 20.5 µM (inactive); in the test with COLO 205, 21.9 µM (inactive); in the test with SNB-19, 25.2 µM (inactive); with OVCAR-3, 15 µM (inactive); in the test with HCT-15 it was 14.4 µM. The GI50 was 19.1 µM (inactive) with HL-60; 24.7 µM (inactive) with OVCAR-4; 21 µM (inactive) in the test with EKVX; 17 µM (inactive) with MOLT-4; 23.4 µM (inactive) in the test with SF-539.
On to `CC(C)(C)[Si](C)(C)OCC1OC(n2cnc3c(=O)[nH]c(N)nc32)C(O[Si](C)(C)C(C)(C)C)C1O[Si](C)(C)C(C)(C)C` (stereo not drawn), for which the GI50 in the test with SR was 2.39 µM (inactive); with HOP-62, 2.64 µM (inactive); in the test with Malme-3M it was 1.88 µM (inactive); in the test with UACC-257, 1.78 µM (inactive); in the test with NCI-H226, 2.84 µM (inactive); in the test on OVCAR-5 it was 2.33 µM (inactive). The GI50 with CCRF-CEM is 1.3 µM (inactive); with SF-268, 2.58 µM (inactive); in the test with COLO 205, 1.72 µM (inactive); in the test on SNB-19, 2.29 µM (inactive); with OVCAR-3, 1.47 µM (inactive); with HCT-15, above 46.9 µM. Further, the GI50 in the test with HL-60 was 0.849 µM (active); with OVCAR-4, 1.74 µM (inactive); in the test with EKVX it was 19.5 µM (inactive); in the test on MOLT-4, 1.24 µM (inactive); in the test on SF-539, 2.17 µM (inactive).
In the case of `C=C1C(=O)C23CC1C[C@H](OC(C)=O)C2C1(C)C(OC(C)=O)C[C@H](O)C(C)(C)[C@H]1C(O)[C@@H]3OC(C)=O` (stereo partly drawn), the GI50 is 7.48 µM (inactive) with SR; 18.9 µM (inactive) in the test with HOP-62; 7.01 µM (inactive) in the test with Malme-3M; 11.9 µM (inactive) in the test on UACC-257; 22.1 µM (inactive) in the test on NCI-H226; 14.6 µM (inactive) in the test on OVCAR-5. The GI50 in the test with CCRF-CEM is 2.24 µM (inactive); in the test with SF-268 it was 13.4 µM (inactive); in the test with COLO 205 it was 4.13 µM (inactive); with SNB-19 it was 21.5 µM (inactive); in the test on OVCAR-3 it was 7.18 µM (inactive); in the test on HCT-15, 10.4 µM. Also, the GI50 in the test on HL-60 was 3.66 µM (inactive); in the test on OVCAR-4 it was 10.8 µM (inactive); in the test on EKVX it was 13.1 µM (inactive); in the test on MOLT-4, 2.73 µM (inactive); in the test on SF-539, 2.43 µM (inactive).
Regarding `CC(C)C(NC(=O)OCC1c2ccccc2-c2ccccc21)C(=O)NC(CCC(=O)OC(C)(C)C)C(=O)OC(C)(C)C` (stereo not drawn) (Fmoc-Val-Glu(OtBu)-OtBu; configuration not given here), the GI50 is 3.29 µM (inactive) with SR; > 93.1 µM (inactive) in the test on HOP-62; > 100 µM (inactive) in the test on Malme-3M; > 100 µM (inactive) in the test on UACC-257; > 100 µM (inactive) in the test with NCI-H226; > 100 µM (inactive) in the test with OVCAR-5. In addition, the GI50 in the test on CCRF-CEM was > 100 µM (inactive); in the test on SF-268 it was > 87.3 µM (inactive); with COLO 205, > 31.6 µM (inactive); with SNB-19, > 100 µM (inactive); in the test with OVCAR-3, > 100 µM (inactive); with HCT-15, above 100 µM. The GI50 is 4.14 µM (inactive) in the test on HL-60; 12.8 µM (inactive) in the test with OVCAR-4; > 100 µM (inactive) in the test on EKVX; 4.21 µM (inactive) in the test on MOLT-4; 24.1 µM (inactive) in the test on SF-539.

The GI50 is the concentration at which growth is held to half of that of the control.
